In patent US9775903B2, “1-deoxy analogs of 1,25-dihydroxyvitamin D3 compounds” (JOHNS HOPKINS UNIVERSITY, priority 2010, dated 2017):

How the values were obtained:
VDR [1] = biological target: T1, VDR (Homo sapiens, UniProt P11473); conditions: relative to active Vitamin D hormones / 1,25-hydroxyvitamin D3; cited from earlier work
T1 sequence (P11473 1-427): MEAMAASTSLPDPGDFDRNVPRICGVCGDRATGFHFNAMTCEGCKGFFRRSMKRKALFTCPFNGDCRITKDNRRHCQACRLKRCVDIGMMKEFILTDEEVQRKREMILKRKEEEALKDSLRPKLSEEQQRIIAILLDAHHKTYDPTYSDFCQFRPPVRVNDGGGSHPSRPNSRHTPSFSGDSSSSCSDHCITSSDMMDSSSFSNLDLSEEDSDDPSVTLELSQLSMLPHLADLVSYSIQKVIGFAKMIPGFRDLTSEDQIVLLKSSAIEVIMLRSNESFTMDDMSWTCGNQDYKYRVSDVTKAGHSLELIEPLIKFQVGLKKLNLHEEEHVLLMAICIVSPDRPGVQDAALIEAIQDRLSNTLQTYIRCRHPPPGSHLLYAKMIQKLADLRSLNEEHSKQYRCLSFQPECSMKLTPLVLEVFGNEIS

[2] = system: CYP24 transcription in HPK1a-ras cells; assay: CYP24 transcription in HPK1a-ras cells (real-time PCR); assay type: cell-based, human; conditions: for concentration at which significant transcriptional activity (CYP24) is displayed / CYP24 transcription activity (in words): HPK1a-ras cells; for concentration at which significant transcriptional activity (CYP24) is displayed: 6 hr; for CYP24 transcription activity (in words): which express CYP27B1; for induction of CYP24 transcription compared to vehicle: 6 or 7 hours
Procedure: (§1) HPK1a-ras cells were maintained in Dulbecco's Modified Eagle's medium (DMEM) supplemented with 10% Fetal Bovine Serum and plated at 1×10^5 cells/well in 24-well plates. The media was exchanged after 24 hours for DMEM containing 1% Bovine Serum Albumin. Cells were treated in duplicate with Ibii and control compounds at various concentrations (10^−6 to 10^−9M) for 6 or 7 hours. Extraction of cellular RNA was performed using Trizol® (Invitrogen). Aliquots of RNA were reverse-transcribed to cDNA using random hexamers and Thermoscript reverse transcriptase according to the manufacturer's instructions (Invitrogen). Quantitative real-time PCR was performed using an ABI StepOnePlus system using the Taqman Universal PCR Master Mix. PCR reaction volumes of 20 μL were used with 50 cycles of amplification. Each cDNA sample was tested in duplicate using TaqMan® gene expression assays with the following ID numbers: human GAPDH (Hs99999905_m1), human CYP24 (Hs00167999_m1). The real-time PCR results were analyzed using the StepOne system software V2.1. Gene expression levels were calculated using the comparative CT method, and normalized to the GAPDH expression levels.
(§2) CYP24a1 transcription activity in HPK1a-ras cells was determined for prodrugs Iaii and IIaii. As with the protocol described in Example 7, HPK1a-ras cells were maintained in Dulbecco's Modified Eagle's medium (DMEM) supplemented with 10% Fetal Bovine Serum and plated at 1×10^5 cells/well in 24-well plates. Prior to treatment with compounds, cells were washed with PBS and replaced with DMEM containing 1% Bovine Serum Albumin. Cells were treated in duplicate with vehicle or compounds at various concentrations (10^-6 to 10^-9 M) for 6 hr at 37° C. Media was removed and extraction of cellular RNA was performed using Trizol® (Invitrogen). Aliquots of RNA were reverse-transcribed to cDNA using oligo dT primers and Thermoscript reverse transcriptase according to the manufacturer's instructions (Invitrogen). Quantitative real-time PCR was performed using an ABI StepOnePlus system using the Taqman Universal PCR Master Mix. PCR reaction volumes of 20 μl were used with 50 cycles of amplification. Each cDNA sample was tested in duplicate using TaqMan® gene expression assays with the following ID numbers: human GAPDH (Hs99999905_m1), human CYP24 (Hs00167999_m1). The real-time PCR results were analyzed using the StepOne system software V2.1. Gene expression levels were calculated using the comparative CT method, and normalized to the GAPDH expression levels

[3] = system: CYP24 expression in PMA-stimulated U937 cells; assay: CYP24 expression in PMA-stimulated U937 cells, which do not substantially express CYP27B1; assay type: cell-based, human; conditions: concentrations up to 100 nM, 6 hr
Procedure: PMA-stimulated U937 cells were maintained in RPMI media supplemented with 10 mM HEPES, 1 mM sodium pyruvate, 0.1 mM non-essential amino acids and 10% Fetal Bovine Serum at optimal cell density (between 1×10^5 cells/mL and 2×10^6 cells/mL). Prior to treatment, cells were pelleted by centrifugation and resuspended to a concentration of 5×10^5 cells/mL. Cells were then treated with phorbol myristate acetate (PMA) at a final concentration of 20 ng/ml. To each well of a 24-well plate, 1 ml of cell suspension was added, which was incubated overnight at 37° C.+5% CO2. The following day, RPMI media was replaced with fresh media and cells were treated in triplicate with vehicle or compounds at various concentrations (10^-7 to 10^-9 M) for 6 hr at 37° C. Media was removed and extraction of cellular RNA was performed using Trizol® (Invitrogen). Aliquots of RNA were reverse-transcribed to cDNA using oligo dT primers and Thermoscript reverse transcriptase according to the manufacturer's instructions (Invitrogen). Quantitative real-time PCR was performed using an ABI StepOnePlus system using the Taqman Universal PCR Master Mix. PCR reaction volumes of 20 μl were used with 50 cycles of amplification. Each cDNA sample was tested in duplicate using TaqMan® gene expression assays with the following ID numbers: human GAPDH (Hs99999905_m1), human CYP24 (Hs00167999_m1). The real-time PCR results were analyzed using the StepOne system software V2.1. Gene expression levels were calculated using the comparative CT method, and normalized to the GAPDH expression levels. The U937 cells have a low level of expression of CYP27B1 mRNA, for example compared to HPK1a-ras cells.

VDR [4] = biological target: T1, VDR; assay: Binding to the Vitamin D Receptor (competition with [26,27-methyl-3H]-1α,25(OH)2D3)
Procedure: Unbound radioactive ligand was removed by incubation with dextran-charcoal for 30 min on ice and pelleted by centrifugation at 2000 rpm for 10 min at 4° C. The radioactivity in 100 mL of the supernatant was measured using a scintillation counter. The control reactions contained either no VDR protein (background) or no competing ligand (maximum binding). The mean background binding was subtracted and the data divided by the mean maximum binding to yield B/Bmax values. The concentration necessary to displace 50% of [26,27-methyl-^3H]-1α,25(OH)2D3 from VDR was calculated as the B50.

[5] = system: CYP27b1 transcription in HPK1a-ras cells; assay: CYP27b1 transcription in HPK1a-ras cells (real-time PCR); assay type: cell-based, human
Procedure: as §1, with “duplicate.” for “duplicate using TaqMan® gene expression assays with the following ID numbers: human GAPDH (Hs99999905_m1), human CYP24 (Hs00167999_m1).”

PTH [6] = assay: Serum PTH in adenine-induced uremic rats; assay type: in vivo, male Sprague-Dawley rats; conditions: adenine treated rats
From the text: (§3) Day 0 is the first day of dosing.

FGF23 = assay: Serum FGF23 in adenine-induced uremic rats; assay type: in vivo, male Sprague-Dawley rats; conditions: adenine treated rats, i.v. 0.2-10 mcg/kg, three times per week for two weeks
From the text: as §3

PTH [7] = assay: PTH in vitamin D deficient rats, IV and oral dosing; assay type: in vivo, Sprague Dawley rats; conditions: 160 μg/kg, 3×/week for five days
Procedure: (§4) Vitamin D deficient Sprague Dawley rats were treated with Ibii 3×/week for five days by IV and oral routes, according to the Table below: […]

[8] = Body weight in vitamin D deficient rats; assay type: in vivo, Sprague Dawley rats; conditions: IV and oral, 160 μg/kg
Procedure: as §4

CYP24 = biological target: T2, CYP24 (Homo sapiens, UniProt Q07973); assay: CYP24 inhibitory activity: CYP24a1 transcription in HPK1a-ras cells treated with calcitriol plus test compound; assay type: cell-based; conditions: 1 μM analog with 0.1 nM or 1 nM calcitriol, 6 hours
T2 construct: CYP24a1 relative transcription in HPK1a-ras cells treated for 6 hours with calcitriol; endogenous in cells; host or cells: HPK1a-ras cells
T2 sequence (Q07973 36-514): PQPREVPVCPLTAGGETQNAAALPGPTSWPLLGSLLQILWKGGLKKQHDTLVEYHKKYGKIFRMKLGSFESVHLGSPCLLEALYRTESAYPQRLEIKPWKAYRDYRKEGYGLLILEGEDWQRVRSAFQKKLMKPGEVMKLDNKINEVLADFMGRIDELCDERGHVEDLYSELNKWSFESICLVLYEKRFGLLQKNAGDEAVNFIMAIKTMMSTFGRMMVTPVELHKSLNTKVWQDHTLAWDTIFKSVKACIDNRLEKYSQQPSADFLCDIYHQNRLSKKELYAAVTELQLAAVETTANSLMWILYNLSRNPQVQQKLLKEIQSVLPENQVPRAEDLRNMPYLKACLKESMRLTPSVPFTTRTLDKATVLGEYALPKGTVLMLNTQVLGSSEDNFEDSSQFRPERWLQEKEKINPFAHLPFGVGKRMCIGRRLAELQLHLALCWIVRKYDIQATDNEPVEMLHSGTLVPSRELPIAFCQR
Procedure: as §2, with “Aliquots of RNA were reverse-transcribed to cDNA using oligo dT primers and Thermoscript reverse transcriptase according to the manufacturer's instructions (Invitrogen).” left out, “PCR reaction volumes of 20 μl were used with 50 cycles of amplification. Each cDNA sample was tested in duplicate using TaqMan® gene expression assays with the following ID numbers: human GAPDH (Hs99999905_m1), human CYP24 (Hs00167999_m1).” left out
Transcriptional activity of calcitriol and Prodrugs was determined by CYP24a1 relative transcription in HPK1a-ras cells treated for 6 hours with calcitriol, combinations of calcitriol with Prodrugs Icii, Idii, and Ieii, and combinations of calcitriol with 1-hydroxylated active forms of Prodrugs Icii, Idii, and Ieii which are known CYP24 inhibitors.

## C=C1CC[C@H](O)C/C1=C/C=C1\CCC[C@]2(C)C([C@H](C)CCCC(C)(C)O)CC[C@@H]12 (stereo partly drawn) [25-hydroxyvitamin D3]
VDR [1]
  affinity for the VDR, fold lower than the active Vitamin D hormone: 100 fold

## C=CCO/N=C(\CCC[C@@H](C)C1=CC[C@H]2/C(=C/C=C3/C[C@@H](O)CCC3=C)CCC[C@]12C)C(C)(C)C [Prodrug IIaii, 7-{4-[2-(5-Hydroxy-2-methylene-cyclohexylidene)-ethylidene]-7α-methyl-3α,4,5,6,7,7a-hexahydro-3H-inden-1-yl}-2,2-dimethyl-octan-3-one 0-allyl-oxime]
[2]
  concentration at which significant transcriptional activity (CYP24) is displayed: 1000 nM
  CYP24 transcription activity (in words): active
[3]
  relative CYP24 expression (compared to calcitriol): inactive
VDR [4]
  binding to the VDR (in words): do not bind to the VDR

## C=C1CCC(O)CC1=CC=C1CCCC2(C)C1CCC2C(C)CCC(F)(F)S(=O)(=O)C(C)(C)C (stereo not drawn) [Prodrug Iaii, 3-(2-{1-[4,4-Difluoro-1-methyl-4-(2-methyl-propane-2-sulfonyl)-butyl]-7α-methyl-3,3α,5,6,7,7a-hexahydro-inden-4-ylidene}-ethylidene)-4-methylene-cyclohexanol]
[2]
  concentration at which significant transcriptional activity (CYP24) is displayed: 1000 nM
  CYP24 transcription activity (in words): active
[3]
  relative CYP24 expression (compared to calcitriol): inactive
VDR [4]
  binding to the VDR (in words): do not bind to the VDR

## C=C1CCC(O)CC1=CC=C1CCCC2(C)C(C(C)CC=CS(=O)(=O)C(C)(C)C)=CCC12 (stereo not drawn) [Prodrug Ibii, 4-Methylene-3-(2-{7α-methyl-1-[1-methyl-4-(2-methyl-propane-2-sulfonyl)-but-3-enyl]-3,3α,5,6,7,7a-hexahydro-inden-4-ylidene}-ethylidene)-cyclohexanol]
[2]; 100 nM, HPK1aRas cells
  induction of CYP24 transcription compared to vehicle: about 100 fold
[2]; 1 μM, HPK1aRas cells
  induction of CYP24 transcription compared to vehicle: about 500 fold
[2]
  concentration at which significant transcriptional activity (CYP24) is displayed: 100 nM
[2]; HPK1aRas cells
  potency in CYP24 transcription relative to its 1-hydroxylated analog: about 1/100
[2]; concentrations below 100 nM, HPK1aRas cells
  induction of CYP24A1 transcription at lower concentrations: did not significantly induce
[5]
  transcription of CYP27b1 compared to vehicle: not significantly affected
PTH [6]; i.v.
  potency in decreasing circulating iPTH levels versus the 1-hydroxy active form: comparable to but lower than the 1-hydroxy active form
PTH [6]; i.v. 0.2-10 mcg/kg, three times per week for two weeks
  circulating iPTH levels in serum: can lower circulating iPTH levels
FGF23
  effect on serum FGF23 levels: does not increase serum FGF23 levels
PTH [7]; intravenous
  effect on PTH: can effectively lower PTH
PTH [7]; oral
  effect on PTH: can effectively lower PTH
[8]
  effects on body weight (overt toxicity): does not exhibit overt toxicity
[3]
  relative CYP24 expression (compared to calcitriol): inactive
VDR [4]; read-out: B50 (concentration necessary to displace 50% of [26,27-methyl-3H]-1α,25(OH)2D3 from VDR), in vitro, human recombinant VDR
  IC50: > 1000 nM

## C=C1CCC(O)CC1=CC=C1CCCC2(C)C1CCC2C(C)CCCS(=N)(=O)c1ccccc1 (stereo not drawn) [Prodrug Icii, 3-{2-[1-(4-Benzenesulfoximine-1-methyl-butyl)-7α-methyl-octahydro-inden-4-ylidene]-ethylidene}-4-methylene-cyclohexanol]
[3]
  relative CYP24 expression (compared to calcitriol): inactive
CYP24
  CYP24 inhibitory effect (increased CYP24a1 transcription with calcitriol): CYP24 inhibitory effect

## C=C1CCC(O)CC1=CC=C1CCCC2(C)C1CCC2C(C)CCS(=O)(=O)c1ccccc1 (stereo not drawn) [Prodrug Idii, 3-{2-[1-(3-Benzenesulfonyl-1-methyl-propyl)-7α-methyl-octahydro-inden-4-ylidene]-ethylidene}-4-methylene-cyclohexanol]
[3]
  relative CYP24 expression (compared to calcitriol): inactive
CYP24
  CYP24 inhibitory effect (increased CYP24a1 transcription with calcitriol): CYP24 inhibitory effect
